How the values were obtained:
Format in all cases: cell-based
human S1PR4 = molecular target: T1, human S1PR4 (Homo sapiens, UniProt O95977); test: Intracellular Ca2+ release (FLIPR) agonist potency, S1P4; settings: recombinant CHO-K1 cells expressing human S1PR4, aequorin, Gq/i5; Calcium 5 FLIPR; read-out: S1P4 EC50
T1 construct: host or cells: CHO-K1
T1 sequence (O95977 1-384): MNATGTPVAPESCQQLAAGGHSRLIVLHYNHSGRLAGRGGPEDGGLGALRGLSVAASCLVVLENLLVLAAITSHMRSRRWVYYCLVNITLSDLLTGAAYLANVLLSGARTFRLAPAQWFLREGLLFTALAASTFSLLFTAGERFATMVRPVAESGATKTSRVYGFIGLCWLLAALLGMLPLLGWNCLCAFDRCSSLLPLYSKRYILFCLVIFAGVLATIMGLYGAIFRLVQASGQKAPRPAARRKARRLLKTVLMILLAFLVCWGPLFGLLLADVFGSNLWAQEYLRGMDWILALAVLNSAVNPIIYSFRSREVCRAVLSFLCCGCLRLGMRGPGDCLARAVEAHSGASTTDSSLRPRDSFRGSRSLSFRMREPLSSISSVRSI
How it was run: (§1)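 CHO-K1/receptor/aequorin/Gq/i5 cells, F-12 Ham + 10% FBS. Ca2+ release read on FLIPR Tetra. EC50 by nonlinear fit after normalizing to phospho-fingolimod reference curve.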

human S1PR1 = molecular target: T2, human S1PR1 (Homo sapiens, UniProt P21453); test: Intracellular Ca2+ release (FLIPR) agonist potency, S1P1; settings: recombinant CHO-K1 cells expressing human S1PR1, aequorin, Gq/i5; Calcium 5 FLIPR; read-out: S1P1 EC50
T2 construct: host or cells: CHO-K1
How it was run: as §1

human S1PR3 = molecular target: T3, human S1PR3 (Homo sapiens, UniProt Q99500); test: Intracellular Ca2+ release (FLIPR) agonist potency, S1P3; settings: recombinant CHO-K1 cells expressing human S1PR3, aequorin, Gq/i5; Calcium 5 FLIPR; read-out: S1P3 EC50
T3 construct: host or cells: CHO-K1
Experimental: Agonistic activity was measured using the method described below.
Intracellular Ca^2+ Release
Agonist potency and intrinsic activity was assessed by measurement of intracellular Ca^2+ release. Recombinant CHO-K1 cells (Euroscreen, Brussels, Belgium) expressing human S1PR5, S1PR1, S1PR3 or S1PR4 receptors, aequorin, and GTP binding protein Gq/i5 were cultured using a medium containing nutrient mixture F-12 Ham (Sigma-Aldrich) with 10% FBS, and 100 μg/mL gentamicin and equilibrated at 5% CO2.
Phospho-fingolimod was used as positive control. Antagonists were pre-incubated for 10 min with cells before addition of the agonist (phospho-fingolimod at EC80). Measurements were performed using a fluorometric imaging plate reader FLIPR®tetra (Molecular Devices). Agonist at the human S1P receptors were characterized by deducing EC50 (potency) values from a nonlinear fit to the measured fluorescence raw data after normalization to the reference agonist (phospho-fingolimod) curve.

human S1PR5 = molecular target: T4, human S1PR5 (Homo sapiens, UniProt Q9H228); test: Intracellular Ca2+ release (FLIPR) agonist potency, S1P5; settings: recombinant CHO-K1 cells expressing human S1PR5, aequorin, Gq/i5; Calcium 5 FLIPR; read-out: S1P5 EC50 range
T4 construct: host or cells: CHO-K1
How it was run: as §1

T2 sequence (P21453 whole entry): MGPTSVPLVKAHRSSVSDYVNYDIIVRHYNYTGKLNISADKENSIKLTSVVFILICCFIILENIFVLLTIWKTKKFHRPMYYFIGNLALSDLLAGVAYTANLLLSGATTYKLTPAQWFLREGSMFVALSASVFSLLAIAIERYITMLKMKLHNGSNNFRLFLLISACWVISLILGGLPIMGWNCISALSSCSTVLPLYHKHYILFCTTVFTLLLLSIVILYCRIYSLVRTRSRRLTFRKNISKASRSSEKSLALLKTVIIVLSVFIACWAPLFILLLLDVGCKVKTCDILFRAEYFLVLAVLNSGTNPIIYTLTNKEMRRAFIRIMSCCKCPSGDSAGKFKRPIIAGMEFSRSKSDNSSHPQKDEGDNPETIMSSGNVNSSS
T4 sequence (Q9H228 whole entry): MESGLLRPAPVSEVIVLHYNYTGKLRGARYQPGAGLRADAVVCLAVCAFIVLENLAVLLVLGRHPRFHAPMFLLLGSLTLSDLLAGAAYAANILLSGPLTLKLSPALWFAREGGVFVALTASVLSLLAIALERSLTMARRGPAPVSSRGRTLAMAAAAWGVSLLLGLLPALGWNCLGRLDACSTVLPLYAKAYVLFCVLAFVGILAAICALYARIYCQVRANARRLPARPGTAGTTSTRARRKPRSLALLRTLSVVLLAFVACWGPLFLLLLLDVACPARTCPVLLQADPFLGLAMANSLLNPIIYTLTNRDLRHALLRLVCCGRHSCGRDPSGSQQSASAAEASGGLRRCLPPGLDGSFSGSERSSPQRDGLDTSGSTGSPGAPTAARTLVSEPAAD
T3 sequence (Q99500 whole entry): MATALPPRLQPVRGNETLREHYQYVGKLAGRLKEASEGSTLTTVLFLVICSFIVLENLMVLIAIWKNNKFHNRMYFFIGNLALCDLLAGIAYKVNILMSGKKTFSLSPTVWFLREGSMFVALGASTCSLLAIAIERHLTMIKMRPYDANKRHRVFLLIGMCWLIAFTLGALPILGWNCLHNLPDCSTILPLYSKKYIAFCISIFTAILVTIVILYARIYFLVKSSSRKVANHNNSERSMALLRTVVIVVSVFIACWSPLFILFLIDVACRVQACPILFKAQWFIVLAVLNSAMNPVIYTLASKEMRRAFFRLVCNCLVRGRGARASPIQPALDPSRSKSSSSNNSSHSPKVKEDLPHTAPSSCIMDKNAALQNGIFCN

EC50 (human S1PR4) [nM] | EC50 (human S1PR1) [nM] | EC50 (human S1PR3) [nM] | EC50 (human S1PR5) [nM] | SMILES
> 1000 | > 1000 | > 1000 | < 10 | O=C(O)C1CCN(C2COc3cc(OCc4c(Cl)cccc4Cl)ccc3C2)C1 (single isomer, unassigned) [Compound 50, 1-(7-((2,6-dichlorobenzyl)oxy)chroman-3-yl)pyrrolidine-3-carboxylic acid]
> 1000 | > 1000 | > 1000 | < 10 | O=C(O)C1CN(C2COc3cc(OCc4c(Cl)cccc4Cl)ccc3C2)C1 (centres unmarked) [Compound 1, 1-(7-((2,6-dichlorobenzyl)oxy)chroman-3-yl)azetidine-3-carboxylic acid]
 | > 1000 | > 1000 | < 10 | O=C(O)C1CN(C2CCc3cc(OCc4c(Cl)cccc4Cl)ccc3C2)C1 (centres unmarked) [Compound 4, 1-(6-((2,6-dichlorobenzyl)oxy)-1,2,3,4-tetrahydronaphthalen-2-yl)azetidine-3-carboxylic acid]
< 1000 | > 1000 | > 1000 | < 10 | CCc1cccc(Cl)c1COc1ccc2c(c1)CCC(NC1(C(=O)O)CC1)C2 (centres unmarked) [Compound 5, 1-((6-((2-chloro-6-ethylbenzyl)oxy)-1,2,3,4-tetrahydronaphthalen-2-yl)amino)cyclopropanecarboxylic acid]
 | < 1000 | > 1000 | < 10 | CCc1cccc(Cl)c1COc1ccc2c(c1)CCC(NCCC(=O)O)C2 (centres unmarked) [Compound 6, 3-((6-((2-chloro-6-ethylbenzyl)oxy)-1,2,3,4-tetrahydronaphthalen-2-yl)amino)propanoic acid]
 | > 1000 | > 1000 | 10 to 100 | O=C(O)CCNC1CCc2cc(OCc3ccccc3)ccc2C1 (centres unmarked) [Compound 7, 3-((6-(benzyloxy)-1,2,3,4-tetrahydronaphthalen-2-yl)amino)propanoic acid]
< 1000 | > 1000 | > 1000 | < 10 | O=C(O)CCNC1CCc2cc(OCc3ccccc3Cl)ccc2C1 (centres unmarked) [Compound 8, 3-((6-((2-chlorobenzyl)oxy)-1,2,3,4-tetrahydronaphthalen-2-yl)amino)propanoic acid]
 | > 1000 | > 1000 | < 10 | O=C(O)CCNC1CCc2cc(OCc3c(Cl)cccc3Cl)ccc2C1 (centres unmarked) [Compound 9, 3-((6-((2,6-dichlorobenzyl)oxy)-1,2,3,4-tetrahydronaphthalen-2-yl)amino)propanoic acid]
 | > 1000 | > 1000 | 1000 to 10000 | O=C(O)CCNC1CCc2ccc(OCc3c(Cl)cccc3Cl)cc2C1 (centres unmarked) [Compound 10, 3-((7-((2,6-dichlorobenzyl)oxy)-1,2,3,4-tetrahydronaphthalen-2-yl)amino)propanoic acid]
 | > 1000 | > 1000 | 1000 to 10000 | O=C(O)CCNC1CCc2cc(OCc3ccc(Cl)cc3)ccc2C1 (centres unmarked) [Compound 11, 3-((6-((4-chlorobenzyl)oxy)-1,2,3,4-tetrahydronaphthalen-2-yl)amino) propanoic acid]
< 1000 | > 1000 | > 1000 | < 10 | O=C(O)CCNC1CCc2cc(C#Cc3c(Cl)cccc3Cl)ccc2C1 (centres unmarked) [Compound 12, 3-((6-((2,6-dichlorophenyl)ethynyl)-1,2,3,4-tetrahydronaphthalen-2-yl)amino)propanoic acid]
< 1000 | > 1000 | > 1000 | < 10 | CN(CCC(=O)O)C1CCc2cc(C#Cc3c(Cl)cccc3Cl)ccc2C1 (centres unmarked) [Compound 13, 3-((6-((2,6-dichlorophenyl)ethynyl)-1,2,3,4-tetrahydronaphthalen-2-yl)(methyl)amino)propanoic acid]
< 1000 | > 1000 | > 1000 | < 10 | O=C(O)CCNC1CCc2cc(C#Cc3cc(F)cc(F)c3)ccc2C1 (centres unmarked) [Compound 14, 3-((6-((3,5-difluorophenyl)ethynyl)-1,2,3,4-tetrahydronaphthalen-2-yl)amino)propanoic acid]
< 1000 | > 1000 | > 1000 | < 10 | CN(CCC(=O)O)C1CCc2cc(C#Cc3cc(F)cc(F)c3)ccc2C1 (centres unmarked) [Compound 15, 3-((6-((3,5-difluorophenyl)ethynyl)-1,2,3,4-tetrahydronaphthalen-2-yl)(methyl)amino)propanoic acid]
< 1000 | > 1000 | > 1000 | 100 to 1000 | CN(CCC(=O)O)C1CCc2cc(OCc3ccccc3Cl)ccc2C1 (centres unmarked) [Compound 16, 3-((6-((2-chlorobenzyl)oxy)-1,2,3,4-tetrahydronaphthalen-2-yl)(methyl)amino)propanoic acid]
< 1000 | < 1000 | > 1000 | < 10 | CCc1cccc(Cl)c1COc1ccc2c(c1)CCC(N(C)CCC(=O)O)C2 (centres unmarked) [Compound 17, 3-((6-((2-chloro-6-ethylbenzyl)oxy)-1,2,3,4-tetrahydronaphthalen-2-yl)(methyl)amino)propanoic acid]
< 1000 | < 1000 | > 1000 | < 10 | O=C(O)CCNC1CCc2cc(/C=C/c3c(Cl)cccc3Cl)ccc2C1 (centres unmarked) [Compound 18, (E)-3-((6-(2,6-dichlorostyryl)-1,2,3,4-tetrahydronaphthalen-2-yl)amino)-propanoic acid]
< 1000 | > 1000 | > 1000 | 10 to 100 | O=C(O)CCNC1CCc2cc(/C=C/c3ccccc3)ccc2C1 (centres unmarked) [Compound 19, (E)-3-((6-styryl-1,2,3,4-tetrahydronaphthalen-2-yl)amino)propanoic acid]
< 1000 | > 1000 | > 1000 | < 10 | O=C(O)CCNC1CCc2cc(/C=C/c3cccc(Cl)c3)ccc2C1 (centres unmarked) [Compound 20, (E)-3-((6-(3-chlorostyryl)-1,2,3,4-tetrahydronaphthalen-2-yl)amino)-propanoic acid]
> 1000 | > 1000 | > 1000 | 1000 to 10000 | O=C(O)CCNC1CCc2cc(OCc3c(Cl)cccc3C3CC3)ccc2C1 (centres unmarked) [Compound 21, 3-((6-((2-chloro-6-cyclopropylbenzyl)oxy)-1,2,3,4-tetrahydronaphthalen-2-yl)amino)propanoic acid]
> 1000 | > 1000 | > 1000 | 1000 to 10000 | C=C(CN(Cc1c(Cl)cccc1CC)C1CCc2cc(OCc3c(Cl)cccc3CC)ccc2C1)C(=O)OC (centres unmarked) [Compound 22, Methyl 2-(((2-chloro-6-ethylbenzyl)(6-((2-chloro-6-ethylbenzyl)oxy)-1,2,3,4-tetrahydronaphthalen-2-yl)amino)methyl)acrylate]
< 1000 | > 1000 | > 1000 | < 10 | CCc1cccc(Cl)c1COc1ccc2c(c1)OCC(N1CC(C(=O)O)C1)C2 (centres unmarked) [Compound 23, 1-(7-((2-chloro-6-ethylbenzyl)oxy)chroman-3-yl)azetidine-3-carboxylic acid]
> 1000 | > 1000 | > 1000 | 1000 to 10000 | O=C(O)C1CN(C2COc3cc(OCc4cccc(Cl)c4)ccc3C2)C1 (centres unmarked) [Compound 24, 1-(7-((3-chlorobenzyl)oxy)chroman-3-yl)azetidine-3-carboxylic acid]
